Experiment [1] relates to basal gastric acid secretion. Kind of experiment: Inhibition of basal gastric acid secretion in the Acute Gastric Fistula Rat. It is filed as in vivo, Female Sprague-Dawley rats. The settings on record: read-out: % Inhibition of Total Acid or Output; for inhibition in vivo at 0.63 mg/kg: intraduodenal 0.63 mg./kg.; for inhibition in vivo at 2.5 mg/kg: intraduodenal 2.5 mg./kg.

The test system of experiment [2] is bronchospasms elicited by histamine. Kind of experiment: Bronchodilator Activity (Konzett Assays), histamine. It is filed as in vivo, guinea pigs. The following applies: Cavia porcellus; three logarithmic cumulative intravenous doses; spasmogen histamine; read-out: ED50, Spasmogenic Agent histamine. Here is the method:
(§1) The compounds of this invention are useful as bronchodilators for the treatment of asthma and chronic bronchitis. Bronchodilator activity is determined in guinea pigs against bronchospasms elicited by intravenous injections of 5-hydroxytryptamine, histamine or acetylcholine by the Konzett procedure. [See J. Lulling, P. Lievens, F. El Sayed and J. Prignot, Arzneimittel-Forschung, 18, 955 (1968).]
(§2) In Table IV which follows bronchodilator activity for representative compounds of this invention against one or more of three spasmogenic agents is expressed as an ED50 determined from the results obtained with three logarithmic cummulative intravenous doses. In this assay, these compounds of this invention provide an effect of longer duration than does natural l-PGE1 or l-PGE2.

The subject of experiment [3] is bronchospasms elicited by acetylcholine. The experiment is described as follows: Bronchodilator Activity (Konzett Assays), acetylcholine. The settings on record: Cavia porcellus; three logarithmic cumulative intravenous doses; spasmogen acetylcholine; read-out: ED50, Spasmogenic Agent Acetylcholine. It is filed as in vivo, guinea pigs. Here is the method:
as §1, §2

The subject of experiment [4] is mean arterial blood pressure. The experiment is described as follows: Hypotensive Response (normotensive rat). The class given is in vivo, Male Wistar strain rats. The settings on record: anesthetized rat. The procedure:
This procedure is a modification of the techniques described by Pike et al., Prostaglandins, Nobel Symposium 2, Stockholm, June, 1966; p. 165.
Male Wistar strain rats (Royal Hart Farms) averaging approximately 250 grams in weight were fastened to rat boards in a supine position by means of canvas vests and limb ties. The femoral area was infiltrated subcutaneously with lidocaine and the iliac artery and vein were exposed and cannulated. Arterial blood pressure (systolic/diastolic) was recorded using a Statham P23 Bb pressure transducer-Offner dynograph system. To obtain a stable blood pressure, the animals were anethetized before use with pentobarbital, 30 mg./kg. of body weight intravenously, and also were given hexamethoxium bitartrate, 2 mg./kg. of body weight intravenously. The test compounds were prepared by ultrasonic dispersion in a Saline-Tween 80® vehicle. A constant intravenous dose volume of 0.5 ml. was administered and test doses ranged from 0.1 to 10.0 mg./kg. of body weight.
In Table V below are recorded the percent decrease from normal of mean arterial blood pressure induced by given doses of representative compounds of this invention.

The subject of experiment [5] is basal gastric acid secretion. The experiment is described as follows: Inhibition of basal gastric acid secretion in the Acute Gastric Fistula Rat. The settings on record: 1 h, intraduodenal 10 mg./kg., after 60 minutes, read-out: % Inhibition of Total Acid or Output. It is filed as in vivo, Female Sprague-Dawley rats. Here is the method:
Inhibition of basal gastric acid secretion can be determined by the following procedure. Female Sprague-Dawley rats weighing 140-160 grams are fastened in individual cages for 18-24 hours. The rats are then lightly anesthetized with ether and their front teeth extracted to avoid destruction of the plastic cannula. A midline incision is then made and the stomach and duodenum exposed. A flanged polyvinyl tube is inserted into the fundic portion of the stomach and secured with a purse string suture line using 4-O Mersilene. The rat is then dosed by injection of the compound into the duodenum (1.0 ml. per 100 gram body weight). After dosing, the abdominal wall and skin are closed using metal wound clips. The rat is replaced in a cage containing a longitudinal slit to allow the polyvinyl tube to hang freely. An 8 ml. plastic collecting tube is attached to the flanged cannula and hangs freely below the cage. The first 30 minute sample is discarded designating this time as zero. The collecting tube is attached again and samples removed at the end of 60 and/or 120 minutes. The hourly samples are then transferred to a 15 ml. centrifuge and centrifuged for 5-10 minutes. Total and sediment volume are then recorded with supernatent volume being used as volume of secretion. A 1 ml. or less aliquot is then removed and placed in a 50 ml. beaker containing 10 ml. of distilled water. This sample is then titrated using 0.01 N to Na H to pH 7.0 using a Beckman zeromatic pH meter. Volume, titratable acidity (meq/L) and total acid output (μeq/hour) are recorded. Percent inhibition is determined by comparison with the appropriate control. Groups of three rats are used for preliminary testing, and groups of six rats are used for dose-response evaluations. All compounds are administered in a vehicle consisting of 0.5% methocel, 0.4% tween 80, and saline at a constant volume of 1 ml./100 gram rat. Samples are dispersed by sonification. Percent inhibition is calculated on basis of concurrent vehicle control.
In Table III which follows is given the effect on total acid output after 60 minutes of a 10 mg./kg. intraduodenal dose of representative compounds of this invention.

Experiment [6] concerns bronchospasms elicited by 5-hydroxytryptamine. The experiment is described as follows: Bronchodilator Activity (Konzett Assays), 5-hydroxytryptamine. The settings on record: Cavia porcellus; three logarithmic cumulative intravenous doses; spasmogen 5-hydroxytryptamine; read-out: ED50, Spasmogenic Agent 5-hydroxytryptamine. It is filed as in vivo, guinea pigs. Here is the method:
as §1, §2

The mark [7] stands for this setting: 1 h, oral dose 10 mg./kg., after 60 minutes.

Where two headings read alike, the source gives them in different places.

By ED50 is commonly meant the dose at which the effect has come halfway, by size or by number of responders. As to `CCCC(C)C(O)C/C=C/[C@H]1[C@H](O)CC(=O)[C@@H]1C/C=C\CCCC(=O)O` (relative stereo) [9-oxo-11α,16-dihydroxy-17-methyl-5-cis,13-trans-prostadienoic acid], the inhibition in vivo at 10 mg/kg in experiment [1] (setting [7]) was 89%; in experiment [1] (2 h, oral dose 10 mg./kg., after 120 minutes) it was 85%; in experiment [5] it was 93%. Further, the values for the median effective dose (ED50) in experiment [2], in experiment [3] and in experiment [6] were 0.49 µg/kg, 3 µg/kg and 1.9 µg/kg, respectively. Besides, in experiment [4] (intravenous 1.0 mg./kg.), the “% Decrease in Mean Arterial Blood Pressure” value (“% Decrease” for short) was 42%.

Take `CCC/C=C/C(O)C/C=C/[C@H]1[C@H](O)CC(=O)[C@@H]1C/C=C\CCCC(=O)O` (relative stereo) [9-oxo-11α,16-dihydroxy-20-methyl-5-cis,13-trans,17-trans-prostatrienoic acid]: the figures for the ED50 in experiment [2], in experiment [3] and in experiment [6] were 2.2 µg/kg, 4 µg/kg and 1.2 µg/kg, respectively. Further, the inhibition in vivo at 10 mg/kg in experiment [5] was found to be 44%.

For the compound `CCCCCC(O)C/C=C/[C@H]1[C@H](O)CC(=O)[C@@H]1C/C=C\CCCC(=O)O` (relative stereo) [9-oxo-11α,16-dihydroxy-20-methyl-5-cis,13-trans-prostadienoic acid], the median effective dose (ED50) in experiment [2] worked out at 0.29 µg/kg; in experiment [3] it was 0.72 µg/kg; in experiment [6], 0.32 µg/kg. In addition, the inhibition in vivo at 10 mg/kg in experiment [5] is 42%.

Turning to `CCCCCC(/C=C/[C@H]1[C@H](O)CC(=O)[C@@H]1C/C=C\CCCC(=O)O)CO` (relative stereo) [9-oxo-11α-hydroxy-15-hydroxymethyl-5-cis,13-trans-prostadienoic acid], in experiment [5], the inhibition in vivo at 10 mg/kg stood at 5%.

On to `CCCCC(C/C=C/[C@H]1[C@H](OC2CCCCO2)CC(=O)[C@@H]1C/C=C\CCCC(=O)O)OC(c1ccccc1)(c1ccccc1)c1ccccc1` (relative stereo) [9-oxo-11α-tetrahydropyranyloxy-16-triphenylmethoxy-5-cis,13-trans-prostadienoic acid], for which the inhibition in vivo at 10 mg/kg in experiment [5] was 68%.

In the case of `CC/C=C/C(O)C/C=C/[C@H]1C=CC(=O)[C@@H]1C/C=C\CCCC(=O)O` (relative stereo) [9-oxo-16-hydroxy-5-cis,10,13-trans,17-trans-prostatetraenoic acid], the figures for the inhibition in vivo at 10 mg/kg in experiment [1] (setting [7]) and in experiment [5] were 43% and 83%, respectively.

As to `CCCCC(O)C/C=C/[C@H]1C=CC(=O)[C@@H]1C/C=C\CCCC(=O)O` (relative stereo) [9-oxo-16-hydroxy-5-cis-10,13-trans-prostatrienoic acid], the figures for the ED50 in experiment [2], in experiment [3] and in experiment [6] were 81 µg/kg, 1540 µg/kg and 125 µg/kg, respectively. Further, the inhibition in vivo at 10 mg/kg in experiment [5] came out at 44%.

Regarding `CCC/C=C/C(O)C/C=C/[C@H]1C=CC(=O)[C@@H]1C/C=C\CCCC(=O)O` (relative stereo) [9-oxo-16-hydroxy-20-methyl-5-cis,10,13-trans,17-trans-prostatetraenoic acid], the median effective dose (ED50) is 369 µg/kg in experiment [2], 2280 µg/kg in experiment [3] and 625 µg/kg in experiment [6].

Take `CCCC(C)C(O)C/C=C/[C@@H]1[C@@H](C/C=C\CCCC(=O)O)[C@@H](O)C[C@H]1O` (relative stereo) [9α,11α,16-trihydroxy-17-methyl-5-cis,13-trans-prostadienoic acid]: the inhibition in vivo at 0.63 mg/kg in experiment [1] (1 h, after 60 minutes) came to 55%; in experiment [1] (2 h, after 120 minutes), 47%. In addition, the inhibition in vivo at 2.5 mg/kg in experiment [1] (1 h, after 60 minutes) was 66%; in experiment [1] (2 h, after 120 minutes), 62%. In addition, the inhibition in vivo at 10 mg/kg in experiment [1] (2 h, intraduodenal 10 mg./kg., after 120 minutes) was determined as 98%; in experiment [5], 96%.

Regarding `CCCCC(O)C/C=C/[C@@H]1[C@@H](C/C=C\CCCC(=O)O)[C@H](O)C[C@H]1O` (relative stereo) [9β,11α,16-trihydroxy-5-cis,13-trans-prostadienoic acid], the “% Decrease” value in experiment [4] (intravenous 2.1 mg./kg.) worked out at 24%.

Regarding `CCCCCCCCCCOC(=O)CCC/C=C\C[C@H]1C(=O)C[C@@H](O)[C@@H]1/C=C/CC(O)CCCC` (relative stereo) [decyl 9-oxo-11α,16-dihydroxy-5-cis,13-trans-prostadienoate], in experiment [5], the inhibition in vivo at 10 mg/kg turned out to be 60%.

`CCCCC(O)C/C=C/[C@H]1[C@H](O)CC(=O)[C@@H]1C/C=C\CCCC(=O)OC` (relative stereo) [methyl 9-oxo-11α,16-dihydroxy-5-cis,13-trans-prostadienoate]: the inhibition in vivo at 0.625 mg/kg in experiment [1] (1 h, oral dose 0.625 mg./kg., after 60 minutes) was 51%. In experiment [1] (1 h, oral dose 1.25 mg./kg., after 60 minutes), the inhibition in vivo at 1.25 mg/kg amounted to 75%. Also, the inhibition in vivo at 10 mg/kg in experiment [5] stood at 100%.

As for `CCCC(C)C(O)C/C=C/[C@H]1[C@H](O)CC(=O)[C@@H]1C/C=C\CCCC(=O)OC` (relative stereo) [methyl 9-oxo-11α,16-dihydroxy-17-methyl-5-cis,13-trans-prostadienoate], in experiment [4] (intravenous 1.2 mg./kg.), the “% Decrease” value amounted to 42%. In addition, the inhibition in vivo at 10 mg/kg in experiment [5] was 76%.

(Values after patent publication US4179451A, “Novel hydroxy substituted 15-deoxy-5-cis-prostenoic acids and esters” (American Cyanamid Company, priority 1978, dated 1979).)
